# PubChem BioAssay (NCI)
#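 Five concentrations, 48 hours, 96-well plates. TGI: total growth inhibition.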
# How the values were obtained:
# Test in all cases: inhibition of tumour cell growth, NCI panel, 48 h
# [1] = system: A498 renal
# [2] = system: MCF7 breast
# [3] = system: CAKI-1 renal
# [4] = system: HL-60(TB) leukemia
# [5] = system: SR leukemia
# [6] = system: SK-MEL-5 melanoma
# [7] = system: SN12C renal
# [8] = system: K-562 leukemia
# [9] = system: OVCAR-5 ovarian
# [10] = system: TK-10 renal
# [11] = system: UO-31 renal
# [12] = system: PC-3 prostate
# [13] = system: RXF 393 renal
# [14] = system: HS 578T breast
# [15] = system: HOP-92 NSCLC
# [16] = system: OVCAR-8 ovarian
# [17] = system: HCC-2998 colon
# [18] = system: M14 melanoma
# [19] = system: MDA-MB-435
# [20] = system: DU-145 prostate
# [21] = system: SK-MEL-28 melanoma
# [22] = system: CCRF-CEM leukemia
# [23] = system: MALME-3M melanoma
# [24] = system: NCI/ADR-RES ovarian
# [25] = system: LOX IMVI melanoma
# [26] = system: RPMI-8226 leukemia
# [27] = system: SNB-75 CNS
# [28] = system: NCI-H23 lung
# [29] = system: MDA-N
# [30] = system: T-47D breast
# [31] = system: UACC-62 melanoma
# [32] = system: SW-620 colon
# [33] = system: OVCAR-3 ovarian
# [34] = system: COLO 205 colon
# [35] = system: SF-539 CNS
# [36] = system: SF-268 CNS
# [37] = system: HCT-15 colon
# [38] = system: SK-MEL-2 melanoma
# [39] = system: UACC-257 melanoma
# [40] = system: NCI-H522 lung
# [41] = system: HT29 colon
# [42] = system: 786-0 renal
# [43] = system: U251 CNS
# [44] = system: MOLT-4 leukemia
# [45] = system: EKVX NSCLC
# [46] = system: SNB-19 CNS
# [47] = system: IGROV1 ovarian
# [48] = system: MDA-MB-231 breast
# [49] = system: HOP-62 NSCLC
# [50] = system: KM12 colon
# [51] = system: ACHN renal
# [52] = system: BT-549 breast
# [53] = system: SF-295 CNS
# [54] = system: HCT-116 colon
# [55] = system: A549 NSCLC
# [56] = system: SK-OV-3 ovarian
# [57] = system: NCI-H460 lung
# [58] = system: NCI-H226 lung
# [59] = system: OVCAR-4 ovarian
structure (smiles),measurement,setting,value
S=C(S)N1CCN(c2cccc(Cl)c2)CC1,TGI,[1],> 100 µM
same,TGI,[2],> 100 µM
same,TGI,[3],> 100 µM
same,TGI,[4],> 100 µM
same,TGI,[5],> 100 µM
same,TGI,[6],> 100 µM
same,TGI,[7],> 100 µM
same,TGI,[8],> 100 µM
same,TGI,[9],> 100 µM
same,TGI,[10],> 100 µM
same,TGI,[11],> 100 µM
same,TGI,[12],> 100 µM
same,TGI,[13],> 100 µM
same,TGI,[14],> 100 µM
same,TGI,[15],> 100 µM
same,TGI,[16],> 100 µM
same,TGI,[17],> 100 µM
same,TGI,[18],> 100 µM
same,TGI,[19],> 100 µM
same,TGI,[20],> 100 µM
same,TGI,[21],> 100 µM
same,TGI,[22],> 100 µM
same,TGI,[23],> 100 µM
same,TGI,[24],> 100 µM
same,TGI,[25],> 100 µM
same,TGI,[26],> 100 µM
same,TGI,[27],> 100 µM
same,TGI,[28],> 100 µM
same,TGI,[29],> 100 µM
same,TGI,[30],> 100 µM
same,TGI,[31],> 100 µM
same,TGI,[32],> 100 µM
same,TGI,[33],> 100 µM
same,TGI,[34],> 100 µM
same,TGI,[35],> 100 µM
same,TGI,[36],> 100 µM
same,TGI,[37],> 100 µM
same,TGI,[38],> 100 µM
same,TGI,[39],> 100 µM
same,TGI,[40],> 100 µM
same,TGI,[41],> 100 µM
same,TGI,[42],> 100 µM
same,TGI,[43],> 100 µM
same,TGI,[44],> 100 µM
same,TGI,[45],> 100 µM
same,TGI,[46],> 100 µM
same,TGI,[47],> 100 µM
same,TGI,[48],> 100 µM
same,TGI,[49],> 100 µM
same,TGI,[50],> 100 µM
same,TGI,[51],> 100 µM
same,TGI,[52],> 100 µM
same,TGI,[53],> 100 µM
same,TGI,[54],> 100 µM
same,TGI,[55],> 100 µM
CSC1=NN(c2ccccc2)C(=O)C1=C(SC)SC,TGI,[1],35.4 µM
same,TGI,[2],49.6 µM
same,TGI,[3],43.9 µM
same,TGI,[4],51.8 µM
same,TGI,[5],83.7 µM
same,TGI,[6],29.8 µM
same,TGI,[7],97.8 µM
same,TGI,[8],45.9 µM
same,TGI,[9],> 100 µM
same,TGI,[10],74.6 µM
same,TGI,[11],37 µM
same,TGI,[56],> 100 µM
same,TGI,[12],47 µM
same,TGI,[13],62.7 µM
same,TGI,[14],> 100 µM
same,TGI,[16],65.9 µM
same,TGI,[17],91.7 µM
same,TGI,[18],> 100 µM
same,TGI,[19],> 100 µM
same,TGI,[20],> 100 µM
same,TGI,[21],> 100 µM
same,TGI,[22],> 100 µM
same,TGI,[23],39.6 µM
same,TGI,[24],49.2 µM
same,TGI,[25],66.1 µM
same,TGI,[26],47 µM
same,TGI,[27],94.3 µM
same,TGI,[28],55.7 µM
same,TGI,[57],41.4 µM
same,TGI,[29],> 100 µM
same,TGI,[30],70.3 µM
same,TGI,[31],66.7 µM
same,TGI,[32],> 100 µM
same,TGI,[33],> 100 µM
same,TGI,[34],26 µM
same,TGI,[58],39.9 µM
same,TGI,[35],70.3 µM
same,TGI,[59],> 100 µM
same,TGI,[36],> 100 µM
same,TGI,[37],76 µM
same,TGI,[38],73.4 µM
same,TGI,[39],46.7 µM
same,TGI,[40],25.5 µM
same,TGI,[41],43.5 µM
same,TGI,[42],> 100 µM
same,TGI,[43],87.6 µM
same,TGI,[44],> 100 µM
same,TGI,[45],> 100 µM
same,TGI,[46],82 µM
same,TGI,[48],53 µM
same,TGI,[50],> 100 µM
same,TGI,[52],> 100 µM
same,TGI,[54],53.8 µM
same,TGI,[55],64.6 µM
